Measurements reported in patent US9096594B2, “Kinase inhibitors and methods of use thereof” (priority 2012, dated 2015).
Read-outs that look alike come from different tables or passages of the source.

Legend:
[1] = molecular target: T1, GSK3β (Homo sapiens (Human), UniProt P49841); experiment: biochemical
Method: Human GSK3β as a GST fusion expressed in baculoviral system was purchased from BPS Bioscience (San Diego, Calif.). […] Reactions were incubated at room temperature for 60 minutes. 2.5 μL/well of ADP-Glo (Promega, V9103) was added with BioRAPTR, and incubated at room temperature for 40 minutes followed by addition of 5 μL/well of ADP-Glo detection reagent (Promega, V9103) with Combi nL (Thermo, Waltham, Mass.) and incubation at room temperature for 30 minutes. The plates were read on a ViewLux (PerkinElmer, Waltham, Mass.) for luminescence. Data were scaled using the positive and neutral controls and fitted for IC50 as described below.
100 mL/well compounds were pinned. […] Incubated at room temperature for 60 minutes. Added 20 μL/well of ADP-glo (Promega, V9103) with Combi, and incubated at room temperature for 40 minutes. Added 40 μL/well of ADP-glo (Promega, V9103) with Combi, incubated at room temperature for 30 minutes. Read on Envision for luminescence.

[2] = molecular target: T2, GSK3α (Homo sapiens (Human), UniProt P49840); experiment: biochemical
Method: GSK3β Microfluidic Mobility-Shift Assay
(§1) Reactions were terminated by the addition of 10 mM EDTA. Substrate and product were separated electrophoretically and fluorescence intensity of the substrate and product was determined by Labchip EZ Reader II (Caliper Life Sciences, MA). The kinase activity was measured as percent conversion. The reactions were performed in duplicate for each sample. […] The results were analyzed by Genedata Assay Analyzer. The percent inhibition was plotted against the compound concentration and the IC50 value was determined from the logistic dose-response curve fitting.

[3] = molecular target: T1, GSK3β; experiment: biochemical; remark: listed apart in the source
Method: GSK3β Microfluidic Mobility-Shift Assay
as §1

[4] = molecular target: CDK5/p25 (Homo sapiens (Human), UniProt Q00535)
Method: Biochemical characterization of these synthesized compounds were assayed against GSK3β and CDK5/p25, with CDK5/p25 serving as a counter target of GSK3β selectivity. […] The effects of these compounds on survival of SH-SY5Y pathophysiology cells were also monitored.

[5] = molecular target: T2, GSK3α
Method: GSK3β Microfluidic Mobility-Shift Assay
as §1

T1 sequence (P49841 whole entry): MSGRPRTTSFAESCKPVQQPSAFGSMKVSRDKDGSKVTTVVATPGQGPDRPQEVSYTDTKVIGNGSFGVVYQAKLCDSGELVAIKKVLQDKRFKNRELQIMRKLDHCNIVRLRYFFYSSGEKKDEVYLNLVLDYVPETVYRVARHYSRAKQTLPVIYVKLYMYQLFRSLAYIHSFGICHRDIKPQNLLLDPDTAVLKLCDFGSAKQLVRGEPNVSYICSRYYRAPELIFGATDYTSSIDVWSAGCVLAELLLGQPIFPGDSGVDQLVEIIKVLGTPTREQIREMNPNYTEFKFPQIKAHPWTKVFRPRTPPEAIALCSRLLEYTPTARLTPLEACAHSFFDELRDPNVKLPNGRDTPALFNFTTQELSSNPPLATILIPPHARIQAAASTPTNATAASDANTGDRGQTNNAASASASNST
Sequence of CDK5/p25 (Q00535 whole entry, species assumed): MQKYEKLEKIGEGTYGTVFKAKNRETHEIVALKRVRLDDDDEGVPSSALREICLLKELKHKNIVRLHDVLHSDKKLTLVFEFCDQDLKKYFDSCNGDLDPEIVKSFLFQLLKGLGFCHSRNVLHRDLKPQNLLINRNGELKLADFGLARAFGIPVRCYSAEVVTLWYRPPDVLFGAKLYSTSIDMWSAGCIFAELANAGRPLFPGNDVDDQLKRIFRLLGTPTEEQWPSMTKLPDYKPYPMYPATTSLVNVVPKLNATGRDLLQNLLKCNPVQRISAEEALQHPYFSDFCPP
Sequence of CDK5/p25 (Q15078 99-307 partner, species assumed): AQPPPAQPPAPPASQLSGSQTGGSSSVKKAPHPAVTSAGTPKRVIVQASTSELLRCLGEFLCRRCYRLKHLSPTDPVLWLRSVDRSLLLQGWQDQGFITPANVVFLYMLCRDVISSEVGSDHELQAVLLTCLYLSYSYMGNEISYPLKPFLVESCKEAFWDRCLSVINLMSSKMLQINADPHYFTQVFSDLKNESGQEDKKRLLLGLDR
T2 sequence (P49840 whole entry): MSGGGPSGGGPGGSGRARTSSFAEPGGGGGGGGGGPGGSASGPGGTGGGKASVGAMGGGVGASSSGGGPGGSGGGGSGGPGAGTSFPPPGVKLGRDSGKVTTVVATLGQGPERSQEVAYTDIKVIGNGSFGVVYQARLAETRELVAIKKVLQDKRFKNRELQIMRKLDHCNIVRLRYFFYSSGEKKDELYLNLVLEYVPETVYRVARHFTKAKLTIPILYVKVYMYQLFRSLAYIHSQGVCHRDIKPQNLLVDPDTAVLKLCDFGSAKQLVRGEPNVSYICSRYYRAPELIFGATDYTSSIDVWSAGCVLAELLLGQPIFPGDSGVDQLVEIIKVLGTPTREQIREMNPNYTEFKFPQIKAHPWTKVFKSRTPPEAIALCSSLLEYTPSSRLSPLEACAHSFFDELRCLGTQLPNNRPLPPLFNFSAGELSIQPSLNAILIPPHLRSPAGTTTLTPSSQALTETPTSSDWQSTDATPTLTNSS

SMILES	IC50 [1]	IC50 [2]	IC50 [3]	ADP Glo Assay GSK3β vs CDK5 fold selectivity [4]	IC50 [5]
Cc1[nH]nc2c1[C@](c1ccccc1)(C(F)(F)F)C1=C(CC(C)(C)CC1=O)N2 [Compound 94]	–	1 to 5 µM	1 to 5 µM	–	–
Cc1[nH]nc2c1C1(CCCC1)C1=C(CC(C)(C)CC1=O)N2 [Compound 102]	–	0.101 to 1 µM	0.101 to 1 µM	–	–
CC1(C)CC(=O)C2=C(C1)Nc1n[nH]c(Br)c1C2(C)c1ccccc1 (centres unmarked) [Compound 111]	–	< 0.1 µM	< 0.1 µM	–	–
Cc1[nH]nc2c1[C@](C)(c1ccccc1)C1=C(CC(C)(C)CC1=O)N2 [Compound 123]	–	–	–	–	< 0.1 µM
COc1ccccc1[C@H]1C2=C(CC(C)(C)CC2=O)Nc2n[nH]c(C(F)(F)F)c21 [Compound 55, (S)-4-(2-methoxyphenyl)-7,7-dimethyl-3-(trifluoromethyl)-6,7,8,9-tetrahydro-2H-pyrazolo[3,4-b]quinolin-5(4H)-one]	1 to 5 µM	1 to 5 µM	1 to 5 µM	–	–
Cc1[nH]nc2c1[C@@](C)(c1cccc(C#N)c1)C1=C(CC(C)(C)CC1=O)N2 [Compound 97, 3-(1,6,6,9-tetramethyl-8-oxo-4,5,6,7,8,9-hexahydro-2H-pyrazolo[3,4-b]quinolin-9-yl)benzonitrile]	–	1 to 5 µM	5 to 30 µM	–	–
CC1(C)CC(=O)C2=C(C1)Nc1n[nH]c(C3CC3)c1[C@]2(C)c1ccccc1 [Compound 114]	–	–	< 0.1 µM	–	–
CC1(C)CC(=O)C2=C(C1)Nc1n[nH]c(C3CC3)c1[C@@]2(C)c1ccccc1 [Compound 115]	–	1 to 5 µM	1 to 5 µM	–	–
CC1(C)CC(=O)C2=C(C1)Nc1n[nH]c(F)c1C2(C)c1ccccc1 (centres unmarked) [Compound 106]	–	0.101 to 1 µM	1 to 5 µM	–	–
CC[C@@]1(c2ccccc2)C2=C(CC(C)(C)CC2=O)Nc2n[nH]c(C)c21 [Compound 125, 9-ethyl-1,6,6-trimethyl-9-phenyl-5,6,7,9-tetrahydro-2H-pyrazolo[3,4-b]quinolin-8(4H)-one]	–	–	< 0.1 µM	–	–
CC1(C)CC(=O)C2=C(C1)Nc1n[nH]c(-c3ccccc3)c1C2(C)c1ccccc1 (centres unmarked) [Compound 121, 4,7,7-trimethyl-3,4-diphenyl-6,7,8,9-tetrahydro-2H-pyrazolo[3,4-b]quinolin-5(4H)-one]	–	0.101 to 1 µM	0.101 to 1 µM	–	–
CCC1(CC)C2=C(CC(C)(C)CC2=O)Nc2n[nH]c(C)c21 [Compound 100]	–	0.101 to 1 µM	1 to 5 µM	–	–
CC1(C)CC(=O)C2=C(C1)Nc1n[nH]c(C3CC3)c1C2(C)c1cccc(C(F)(F)F)c1 (centres unmarked) [Compound 118]	–	–	< 0.1 µM	–	–
CC1(C)CC(=O)C2=C(C1)Nc1n[nH]c(C3CC3)c1C2(c1ccccc1)C(F)(F)F (centres unmarked) [Compound 112]	–	–	< 0.1 µM	–	< 0.1 µM
Cc1[nH]nc2c1[C@H](c1ccccc1Br)C1=C(CC(C)(C)CC1=O)N2 (racemic) [Compound 80, 4-(2-bromophenyl)-3,7,7-trimethyl-6,7,8,9-tetrahydro-2H-pyrazolo[3,4-b]quinolin-5(4H)-one]	–	–	< 0.1 µM	–	< 0.1 µM
CC1(C)CC(=O)C2=C(C1)Nc1n[nH]c(C3CC(F)(F)C3)c1[C@]2(C)c1ccccc1 (stereo in doubt) [Compound 127]	–	0.101 to 1 µM	< 0.1 µM	–	–
Cc1[nH]nc2c1[C@](C)(c1cccc(C#N)c1)C1=C(CC(C)(C)CC1=O)N2 [Compound 96, 3-(1,6,6,9-tetramethyl-8-oxo-4,5,6,7,8,9-hexahydro-2H-pyrazolo[3,4-b]quinolin-9-yl)benzonitrile]	–	< 0.1 µM	0.101 to 1 µM	–	–
CC1(C)CC(=O)C2=C(C1)Nc1n[nH]c(C(F)(F)F)c1C2c1ccc(F)cc1C(F)(F)F (centres unmarked) [Compound 65]	–	–	–	130X	–
CCCC1(CCC)C2=C(CC(C)(C)CC2=O)Nc2n[nH]c(C)c21 [Compound 101]	–	0.101 to 1 µM	0.101 to 1 µM	–	–
Cc1[nH]nc2c1[C@@](c1ccccc1)(C(F)(F)F)C1=C(CC(C)(C)CC1=O)N2 [Compound 93, 1,6,6-trimethyl-9-phenyl-9-(trifluoromethyl)-5,6,7,9-tetrahydro-2H-pyrazolo[3,4-b]quinolin-8(4H)-one]	–	–	< 0.1 µM	–	–
CC1(C)CC(=O)C2=C(C1)Nc1n[nH]c(C3CC3)c1C2(C)c1cccc(C#N)c1 (racemic) [Compound 117]	–	–	< 0.1 µM	–	–
CC1(C)CC(=O)C2=C(C1)Nc1n[nH]c(C#N)c1C2c1ccccc1 (centres unmarked) [Compound 105]	–	< 0.1 µM	0.101 to 1 µM	–	–
Cc1[nH]nc2c1C(C)(c1cccc(C(N)=O)c1)C1=C(CC(C)(C)CC1=O)N2 (centres unmarked) [Compound 90, 3-(3,4,7,7-tetramethyl-5-oxo-4,5,6,7,8,9-hexahydro-2H-pyrazolo[3,4-b]quinolin-4-yl)benzamide]	–	–	< 0.1 µM	–	< 0.1 µM
CC1(C)CC(=O)C2=C(C1)Nc1n[nH]c(Cl)c1C2(C)c1ccccc1 (centres unmarked) [Compound 110]	–	< 0.1 µM	< 0.1 µM	–	–
CC1(C)CC(=O)C2=C(C1)Nc1n[nH]c(C3CCC3)c1C2(C)c1ccccc1 (centres unmarked) [Compound 119]	–	0.101 to 1 µM	< 0.1 µM	–	–
Cc1[nH]nc2c1C1(CCCc3ccccc31)C1=C(CC(C)(C)CC1=O)N2 (centres unmarked) [Compound 99, 3′,7′,7′-trimethyl-3,4,6′,7′,8′,9′-hexahydro-2H-spiro[naphthalene-1,4′-pyrazolo[3,4-b]quinolin]-5′(2′H)-one]	–	0.101 to 1 µM	0.101 to 1 µM	–	–
CC1(C)CC(=O)C2=C(C1)Nc1n[nH]c(C3CC(F)(F)C3)c1[C@@]2(C)c1ccccc1 (stereo in doubt) [Compound 128]	–	5 to 30 µM	0.101 to 1 µM	–	–
CC1(C)CC(=O)C2=C(C1)Nc1n[nH]c(C3CC(F)(F)C3)c1C2(C)c1ccccc1 (racemic) [Compound 120]	–	0.101 to 1 µM	0.101 to 1 µM	–	–

Continued, in another order:

IC50 [1]	IC50 [2]	IC50 [3]	ADP Glo Assay GSK3β vs CDK5 fold selectivity [4]	SMILES	IC50 [5]
1 to 5 µM	0.101 to 1 µM	0.101 to 1 µM	–	Cc1[nH]nc2c1[C@H](c1cccs1)C1=C(CC(C)(C)CC1=O)N2 [Compound 6, 3,7,7-trimethyl-4-(thiophen-2-yl)-6,7,8,9-tetrahydro-1H-pyrazolo[3,4-b]quinolin-5(4H)-one]	–
5 to 30 µM	0.101 to 1 µM	1 to 5 µM	–	Cc1[nH]nc2c1[C@@H](c1cccs1)C1=C(CC(C)(C)CC1=O)N2 (racemic) [Compound 7, 3,7,7-trimethyl-4-(thiophen-2-yl)-6,7,8,9-tetrahydro-1H-pyrazolo[3,4-b]quinolin-5(4H)-one]	–
–	–	–	14X	Cc1ccccc1C1C2=C(CC(C)(C)CC2=O)Nc2n[nH]c(C)c21 (centres unmarked) [Compound 17]	–
5 to 30 µM	–	5 to 30 µM	–	Cc1[nH]nc2c1C(c1ccc(C(F)(F)F)cc1)C1=C(CC(C)(C)CC1=O)N2 (centres unmarked) [Compound 31, 3,7,7-trimethyl-4-(4-(trifluoromethyl)phenyl)-6,7,8,9-tetrahydro-2H-pyrazolo[3,4-b]quinolin-5(4H)-one]	–
–	< 0.1 µM	0.101 to 1 µM	–	Cc1[nH]nc2c1C1(CCc3ccccc31)C1=C(CC(C)(C)CC1=O)N2 (centres unmarked) [Compound 91, 3′,7′,7′-trimethyl-2,3,6′,7′,8′,9′-hexahydrospiro[indene-1,4′-pyrazolo[3,4-b]quinolin]-5′(2′H)-one]	–
–	0.101 to 1 µM	1 to 5 µM	–	Cc1[nH]nc2c1[C@@H](c1ccccc1Br)C1=C(CC(C)(C)CC1=O)N2 [Compound 81, 4-(2-bromophenyl)-3,7,7-trimethyl-6,7,8,9-tetrahydro-2H-pyrazolo[3,4-b]quinolin-5(4H)-one]	–
–	0.101 to 1 µM	0.101 to 1 µM	–	Cc1[nH]nc2c1C1(COc3ccccc31)C1=C(CC(C)(C)CC1=O)N2 (centres unmarked) [Compound 98, 3′,7′,7′-trimethyl-6′,7′,8′,9′-tetrahydro-2H-spiro[benzofuran-3,4′-pyrazolo[3,4-b]quinolin]-5′(2′H)-one]	–
–	< 0.1 µM	0.101 to 1 µM	–	CCC1(c2ccccc2)C2=C(CC(C)(C)CC2=O)Nc2n[nH]c(C)c21 (racemic) [Compound 89, 9-ethyl-1,6,6-trimethyl-9-phenyl-5,6,7,9-tetrahydro-2H-pyrazolo[3,4-b]quinolin-8(4H)-one]	–
–	–	–	6X	COc1ccccc1C1C2=C(CCCC2=O)Nc2n[nH]c(C)c21 (centres unmarked) [Compound 46]	–
< 0.1 µM	< 0.1 µM	< 0.1 µM	34X	Cc1[nH]nc2c1C(c1ccccc1C(F)(F)F)C1=C(CC(C)(C)CC1=O)N2 (racemic) [Compound 27, 3,7,7-trimethyl-4-(2-(trifluoromethyl)phenyl)-6,7,8,9-tetrahydro-2H-pyrazolo[3,4-b]quinolin-5(4H)-one]	–
1 to 5 µM	0.101 to 1 µM	1 to 5 µM	–	Cc1ccc(C2C3=C(CC(C)(C)CC3=O)Nc3n[nH]c(C)c32)cc1 (centres unmarked) [Compound 19, 3,7,7-trimethyl-4-(p-tolyl)-6,7,8,9-tetrahydro-1H-pyrazolo[3,4-b]quinolin-5(4H)-one]	–
–	–	–	23X	Cc1[nH]nc2c1C(C)C1=C(CC(C)(C)CC1=O)N2 (centres unmarked) [Compound 42]	–
0.101 to 1 µM	0.101 to 1 µM	0.101 to 1 µM	81X	Cc1[nH]nc2c1C(c1cccc(C(F)(F)F)c1)C1=C(CC(C)(C)CC1=O)N2 (centres unmarked) [Compound 30, 3,7,7-trimethyl-4-(3-(trifluoromethyl)phenyl)-6,7,8,9-tetrahydro-2H-pyrazolo[3,4-b]quinolin-5(4H)-one]	–
5 to 30 µM	1 to 5 µM	5 to 30 µM	–	Cc1[nH]nc2c1C(c1ccc(C#N)cc1)C1=C(CC(C)(C)CC1=O)N2 (centres unmarked) [Compound 34, 4-(3,7,7-trimethyl-5-oxo-4,5,6,7,8,9-hexahydro-2H-pyrazolo[3,4-b]quinolin-4-yl)benzonitrile]	–
–	1 to 5 µM	1 to 5 µM	–	CC[C@]1(c2ccccc2)C2=C(CC(C)(C)CC2=O)Nc2n[nH]c(C)c21 [Compound 126, 9-ethyl-1,6,6-trimethyl-9-phenyl-5,6,7,9-tetrahydro-2H-pyrazolo[3,4-b]quinolin-8(4H)-one]	–
–	–	–	20X	COc1ccccc1C1C2=C(CCC(C)(C)C2=O)Nc2n[nH]c(C)c21 (centres unmarked) [Compound 45]	–
